Values of other authors as cited in US20210369601A1, “Pharmaceutical Formulation” (Klaria Pharma Holding AB, priority 2018, published 2021).

Conditions: aqueous solution

In the case of `CNCC(O)c1ccc(O)c(O)c1` (centres unmarked) [adrenaline], the “pH of acceptable stability” value is listed as under 5.5 and the “pH of optimal stability” value is listed as 3-4.
